Source: publication PMC7530112 (European journal of medicinal chemistry, 2020)

Key:
HIV-1NL4-3 = assay: Anti-HIV-1 assay in TZM-GFP cells; conditions: for Inhibition% at 20 μM: 20 μM compound; for Inhibition% at 2 μM: 2 μM compound; for fold higher antiviral potency than PF74: EC50 compared with PF74
[1] = Microsomal stability assay, human liver microsomes; conditions: without Cobi; for Phase I metabolic stability t1/2, HLM: 1 μM compound, 0.5 mg/mL microsomal protein, NADPH
[2] = Microsomal stability assay, mouse liver microsomes; conditions: without Cobi, 1 μM compound, 0.5 mg/mL microsomal protein, NADPH

Compound	Inhibition% at 20 μM (HIV-1NL4-3)	Inhibition% at 2 μM (HIV-1NL4-3) [%]	also measured
2-(2-(2,4-Dioxo-1,3-diazaspiro[4.5]decan-3-yl)acetamido)-N,3-diphenylpropanamide [Compound 45]	−/0%		
2-(2-(2,4-Dioxo-1,3-diazaspiro[4.5]decan-3-yl)acetamido)-N-(3-fluorophenyl)-N-methyl-3-phenylpropanamide [Compound 49]	98%	24	
2-(2-(2,4-Dioxo-1,3-diazaspiro[4.5]decan-3-yl)acetamido)-N-ethyl-N,3-diphenylpropanamide [Compound 53]	−/92%		
2-(2-(2,4-Dioxo-1,3-diazaspiro[4.5]decan-3-yl)acetamido)-N-methyl-3-phenyl-N-(p-tolyl)propanamide [Compound 47]	−/92%		Phase I metabolic stability t1/2, HLM [1]: 3.3 min; Phase I metabolic stability t1/2, MLM [2]: 1.2 min
2-(2-(2,4-Dioxo-1,3-diazaspiro[4.5]decan-3-yl)acetamido)-N-methyl-N,3-diphenylpropanamide [Compound 44]	−/89%		
2-(2-(2,5-Dioxo-3’,4’-dihydro-2’H-spiro[imidazolidine-4,1’-naphthalen]-1-yl)acetamido)-N,3-diphenylpropanamide [Compound 55]	−/22%		
2-(2-(2,5-Dioxo-3’,4’-dihydro-2’H-spiro[imidazolidine-4,1’-naphthalen]-1-yl)acetamido)-N-(4-methoxyphenyl)-N-methyl-3-phenylpropanamide [Compound 56]	−/20%		
2-(2-(2,5-Dioxo-3’,4’-dihydro-2’H-spiro[imidazolidine-4,1’-naphthalen]-1-yl)acetamido)-N-methyl-3-phenyl-N-(p-tolyl)propanamide [Compound 57]	−/41%		
2-(2-(2,5-Dioxo-3’,4’-dihydro-2’H-spiro[imidazolidine-4,1’-naphthalen]-1-yl)acetamido)-N-methyl-N,3-diphenylpropanamide [Compound 54]	−/32%		
COc1ccc(N(C)C(=O)C(Cc2ccccc2)NC(=O)CN2C(=O)NC3(CCCCC3)C2=O)cc1 (centres unmarked) [Compound 46, 2-(2-(2,4-Dioxo-1,3-diazaspiro[4.5]decan-3-yl)acetamido)-N-(4-methoxyphenyl)-N-methyl-3-phenylpropanamide]	−/93%		fold improved half-life over PF74 in HLMs [1]: 7 to 10 fold; Phase I metabolic stability t1/2, HLM [1]: 5.2 min; Phase I metabolic stability t1/2, MLM [2]: 0.7 min
CN(C(=O)C(Cc1ccccc1)NC(=O)CN1C(=O)NC2(CCCCC2)C1=O)c1ccc(F)cc1 (centres unmarked) [Compound 48, 2-(2-(2,4-Dioxo-1,3-diazaspiro[4.5]decan-3-yl)acetamido)-N-(4-fluorophenyl)-N-methyl-3-phenylpropanamide]	99%	9	Phase I metabolic stability t1/2, HLM [1]: 1.1 min; Phase I metabolic stability t1/2, MLM [2]: 0.5 min
(2S)-2-(2-(4,7-Dimethyl-2-oxoindolin-3-yl)acetamido)-N-methyl-N,3-diphenylpropanamide [Compound 20]			Phase I metabolic stability t1/2, HLM [1]: 1.5 min; Phase I metabolic stability t1/2, MLM [2]: 0.6 min
(2S)-N-(3-Fluorophenyl)-N-methyl-2-(2-(7-methyl-2-oxoindolin-3-yl)acetamido)-3-phenylpropanamide [Compound 19]	93%	0	
(2S)-N-(4-Chlorophenyl)-N-methyl-2-(2-(7-methyl-2-oxoindolin-3-yl)acetamido)-3-phenylpropanamide [Compound 17]	96%	17	
(2S)-N-Methyl-2-(2-(7-methyl-2-oxoindolin-3-yl)acetamido)-N,3-diphenylpropanamide [Compound 16]	91%	0	fold improved half-life over PF74 in HLMs [1]: 7 to 10 fold; Phase I metabolic stability t1/2, HLM [1]: 7.0 min; Phase I metabolic stability t1/2, MLM [2]: 1 min
(S)-2-(2-(1,3-Dimethyl-2,6-dioxo-1,2,3,6-tetrahydro-7H-purin-7-yl)acetamido)-N-(3-fluorophenyl)-N-methyl-3-phenylpropanamide [Compound 40]	67%	1	
(S)-2-(2-(1,3-Dimethyl-2,6-dioxo-1,2,3,6-tetrahydro-7H-purin-7-yl)acetamido)-N-(4-fluorophenyl)-N-methyl-3-phenylpropanamide [Compound 39]	85%	14	
(S)-2-(2-(1,3-Dimethyl-2,6-dioxo-1,2,3,6-tetrahydro-7H-purin-7-yl)acetamido)-N-ethyl-N,3-diphenylpropanamide [Compound 43]	94%	0	
(S)-2-(2-(1,3-Dimethyl-2,6-dioxo-1,2,3,6-tetrahydro-7H-purin-7-yl)acetamido)-N-methyl-3-phenyl-N-(p-tolyl)propanamide [Compound 38]	98%	18	
(S)-2-(2-(1,3-Dimethyl-2,6-dioxo-1,2,3,6-tetrahydro-7H-purin-7-yl)acetamido)-N-methyl-N,3-diphenylpropanamide [Compound 37]	94%	10	fold improved half-life over PF74 in HLMs [1]: 7 to 10 fold; Phase I metabolic stability t1/2, HLM [1]: 4.7 min; Phase I metabolic stability t1/2, MLM [2]: 1.2 min

Compound	Inhibition% at 20 μM (HIV-1NL4-3)	Inhibition% at 2 μM (HIV-1NL4-3) [%]	also measured
(S)-2-(2-(5-Hydroxy-1H-indol-3-yl)acetamido)-N-methyl-3-phenyl-N-(p-tolyl)propanamide [Compound 9]			fold higher antiviral potency than PF74 (HIV-1NL4-3): up to 20 fold
(S)-2-(2-(5-Hydroxy-1H-indol-3-yl)acetamido)-N-methyl-N,3-diphenylpropanamide [Compound 8]			fold higher antiviral potency than PF74 (HIV-1NL4-3): up to 20 fold
(S)-2-(2-(5-Methoxy-1H-indol-3-yl)acetamido)-N-methyl-N,3-diphenylpropanamide [Compound 3]			Phase I metabolic stability t1/2, HLM [1]: 1.2 min; Phase I metabolic stability t1/2, MLM [2]: 0.5 min
(S)-N-(3-Chlorophenyl)-2-(2-(1,3-dimethyl-2,6-dioxo-1,2,3,6-tetrahydro-7H-purin-7-yl)acetamido)-N-methyl-3-phenylpropanamide [Compound 42]	71%	0	
(S)-N-(3-Chlorophenyl)-2-(2-(5-hydroxy-1H-indol-3-yl)acetamido)-N-methyl-3-phenylpropanamide [Compound 13]			fold potency drop on moving the Cl from 4 position to 3 (HIV-1NL4-3; compared with 4-Cl analog 12): 10 fold
(S)-N-(3-Chlorophenyl)-N-methyl-2-(2-(naphthalen-1-yl)acetamido)-3-phenylpropanamide [Compound 34]	96%	53	
(S)-N-(3-Chlorophenyl)-N-methyl-2-(2-(naphthalen-2-yl)acetamido)-3-phenylpropanamide [Compound 28]	94%	0	
(S)-N-(3-Fluorophenyl)-N-methyl-2-(2-(naphthalen-1-yl)acetamido)-3-phenylpropanamide [Compound 35]	97%	44	
(S)-N-(3-Fluorophenyl)-N-methyl-2-(2-(naphthalen-2-yl)acetamido)-3-phenylpropanamide [Compound 29]	97%	0	
(S)-N-(4-Chlorophenyl)-2-(2-(1,3-dimethyl-2,6-dioxo-1,2,3,6-tetrahydro-7H-purin-7-yl)acetamido)-N-methyl-3-phenylpropanamide [Compound 41]	96%	6	
(S)-N-(4-Chlorophenyl)-2-(2-(5-hydroxy-1H-indol-3-yl)acetamido)-N-methyl-3-phenylpropanamide [Compound 12]			fold higher antiviral potency than PF74 (HIV-1NL4-3): up to 20 fold
(S)-N-(4-Chlorophenyl)-2-(2-(5-methoxy-1H-indol-3-yl)acetamido)-N-methyl-3-phenylpropanamide [Compound 7]			Phase I metabolic stability t1/2, HLM [1]: 1.8 min; Phase I metabolic stability t1/2, MLM [2]: 0.6 min
(S)-N-Ethyl-2-(2-(naphthalen-1-yl)acetamido)-N,3-diphenylpropanamide [Compound 36]	98%	53	
(S)-N-Ethyl-2-(2-(naphthalen-2-yl)acetamido)-N,3-diphenylpropanamide [Compound 30]	97%	46	
(S)-N-Methyl-2-(2-(naphthalen-1-yl)acetamido)-3-phenyl-N-(p-tolyl)propanamide [Compound 32]	100%	96	
(S)-N-Methyl-2-(2-(naphthalen-1-yl)acetamido)-N,3-diphenylpropanamide [Compound 31]	100%	66	Phase I metabolic stability t1/2, HLM [1]: 0.6 min; Phase I metabolic stability t1/2, MLM [2]: 0.5 min
(S)-N-Methyl-2-(2-(naphthalen-2-yl)acetamido)-3-phenyl-N-(p-tolyl)propanamide [Compound 26]	99%	80	
(S)-N-Methyl-2-(2-(naphthalen-2-yl)acetamido)-N,3-diphenylpropanamide [Compound 25]	98%	40	Phase I metabolic stability t1/2, HLM [1]: 1.8 min; Phase I metabolic stability t1/2, MLM [2]: 0.5 min
N-(3-Bromophenyl)-2-(2-(2,4-dioxo-1,3-diazaspiro[4.5]decan-3-yl)acetamido)-N-methyl-3-phenylpropanamide [Compound 52]	−/36%		
N-(3-Chlorophenyl)-2-(2-(2,4-dioxo-1,3-diazaspiro[4.5]decan-3-yl)acetamido)-N-methyl-3-phenylpropanamide [Compound 51]	98%	9	
